Data reported in ChEMBL document CHEMBL3526017, “Predicting the drug interaction potential of AMG 853, a dual antagonist of the D-prostanoid and chemoattractant receptor-homologous molecule expressed on T helper 2 cells receptors” (Drug Metab Dispos, 2012).

Tests used:
Cytochrome P450 2C9 = Cytochrome P450 2C9 (Homo sapiens, UniProt P11712); test: Inhibition of CYP2C9 in human liver microsomes using diclofenac as substrate after 5 to 30 mins by LC-MS/MS analysis; assay type: ADME
Cytochrome P450 2C19 = Cytochrome P450 2C19 (Homo sapiens, UniProt P33261); test: Inhibition of CYP2C19 in human liver microsomes using (S)-Mephenytoin as substrate after 5 to 30 mins by LC-MS/MS analysis; assay type: ADME
Cytochrome P450 2D6 = Cytochrome P450 2D6 (Homo sapiens, UniProt P10635); test: Inhibition of CYP2D6 in human liver microsomes using dextromethorphan as substrate after 5 to 30 mins by LC-MS/MS analysis; assay type: ADME
Cytochrome P450 2E1 = Cytochrome P450 2E1 (Homo sapiens, UniProt P05181); test: Inhibition of CYP2E1 in human liver microsomes using chlorzoxazone as substrate after 5 to 30 mins by LC-MS/MS analysis; assay type: ADME
Cytochrome P450 3A4 [1] = biological target: T1, Cytochrome P450 3A4 (Homo sapiens, UniProt P08684); test: Inhibition of CYP3A4 in human liver microsomes using midazolam as substrate after 5 to 30 mins by LC-MS/MS analysis; assay type: ADME
Cytochrome P450 3A4 [2] = biological target: T1, Cytochrome P450 3A4; test: Inhibition of CYP3A4 in human liver microsomes using testosterone as substrate after 5 to 30 mins by LC-MS/MS analysis; assay type: ADME
Cytochrome P450 2C8 = biological target: T2, Cytochrome P450 2C8 (Homo sapiens, UniProt P10632); test: Biphasic inhibition of CYP2C8 in human liver microsomes assessed as montelukast 36-hydroxylation after 20 mins by LC-MS/MS analysis; assay type: ADME
T2 sequence (P10632 whole entry): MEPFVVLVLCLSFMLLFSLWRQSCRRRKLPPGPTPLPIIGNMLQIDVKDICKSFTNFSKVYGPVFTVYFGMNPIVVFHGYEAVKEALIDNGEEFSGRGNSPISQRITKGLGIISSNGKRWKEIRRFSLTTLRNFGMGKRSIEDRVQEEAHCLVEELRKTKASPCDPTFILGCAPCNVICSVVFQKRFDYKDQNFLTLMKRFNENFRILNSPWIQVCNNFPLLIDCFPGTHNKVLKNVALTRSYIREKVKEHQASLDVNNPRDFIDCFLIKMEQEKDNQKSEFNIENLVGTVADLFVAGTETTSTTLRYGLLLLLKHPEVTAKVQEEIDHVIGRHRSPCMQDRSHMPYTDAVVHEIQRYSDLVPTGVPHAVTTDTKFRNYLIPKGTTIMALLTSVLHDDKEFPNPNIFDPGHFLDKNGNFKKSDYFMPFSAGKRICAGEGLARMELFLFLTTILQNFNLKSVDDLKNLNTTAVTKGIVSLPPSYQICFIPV

Cytochrome P450 1A2 = biological target: T3, Cytochrome P450 1A2 (Homo sapiens, UniProt P05177); test: Inhibition of CYP1A2 in human liver microsomes using phenacetin as substrate after 5 to 30 mins by LC-MS/MS analysis; assay type: ADME
T3 sequence (P05177 whole entry): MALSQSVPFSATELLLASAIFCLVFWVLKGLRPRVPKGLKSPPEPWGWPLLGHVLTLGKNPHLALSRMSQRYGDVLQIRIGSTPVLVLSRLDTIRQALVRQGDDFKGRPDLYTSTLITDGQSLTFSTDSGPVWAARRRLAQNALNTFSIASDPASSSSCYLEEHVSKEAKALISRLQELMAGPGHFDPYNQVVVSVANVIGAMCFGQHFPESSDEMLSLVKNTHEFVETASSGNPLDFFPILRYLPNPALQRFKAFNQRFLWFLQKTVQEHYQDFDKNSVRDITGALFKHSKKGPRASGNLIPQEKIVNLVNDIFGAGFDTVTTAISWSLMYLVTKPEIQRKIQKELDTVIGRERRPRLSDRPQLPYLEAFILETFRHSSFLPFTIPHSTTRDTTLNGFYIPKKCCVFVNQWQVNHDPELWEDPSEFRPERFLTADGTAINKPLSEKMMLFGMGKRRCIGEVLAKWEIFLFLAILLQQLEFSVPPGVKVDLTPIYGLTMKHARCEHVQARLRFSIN

Cytochrome P450 2B6 = biological target: T4, Cytochrome P450 2B6 (Homo sapiens, UniProt P20813); test: Inhibition of CYP2B6 in human liver microsomes using bupropion as substrate after 5 to 30 mins by LC-MS/MS analysis; assay type: ADME
T4 sequence (P20813 whole entry): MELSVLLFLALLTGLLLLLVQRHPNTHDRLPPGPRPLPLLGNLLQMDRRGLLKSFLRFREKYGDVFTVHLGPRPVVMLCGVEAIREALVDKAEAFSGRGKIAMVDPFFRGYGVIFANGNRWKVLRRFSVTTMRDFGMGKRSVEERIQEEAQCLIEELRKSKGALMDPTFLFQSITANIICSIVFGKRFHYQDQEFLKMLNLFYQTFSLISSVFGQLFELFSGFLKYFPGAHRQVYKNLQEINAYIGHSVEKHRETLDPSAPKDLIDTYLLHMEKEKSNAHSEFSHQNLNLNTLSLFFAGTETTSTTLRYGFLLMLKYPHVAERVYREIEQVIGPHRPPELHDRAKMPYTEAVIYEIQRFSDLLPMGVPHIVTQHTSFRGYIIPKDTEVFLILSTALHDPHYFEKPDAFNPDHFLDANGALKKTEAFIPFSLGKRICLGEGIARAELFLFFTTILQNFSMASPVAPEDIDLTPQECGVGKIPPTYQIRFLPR

CYP1A2 = CYP1A2 (Homo sapiens, UniProt P05177); test: Induction of CYP1A2 in human hepatocytes using phenacetin as substrate at 0.3 to 30 uM treated every 24 hrs for 2 days measured on day 5 by LC-MS/MS analysis relative to control; assay type: ADME, cell-based, Hepatocyte; details: probe phenacetin, read-out: FC
[3] = Cmax in healthy human at 50 mg, po; assay type: ADME, organism-based; design: dose 50 mg, route oral; details: in vivo
[4] = Drug metabolism in human liver microsomes assessed as […]-mediated (2S,3S,4S,5R,6S)-6-(2-(4-(4-(tert-butylcarbamoyl)-2-(2-chloro-4-cyclopropylphenylsulfonamido)phenoxy)-5-chloro-2-fluorophenyl)acetoxy)-3,4,5-trihydroxytetrahydro-2H-pyran-2-carboxylic acid formation after 15 mins by LC-MS/MS analysis in presence of UDPGA and NADPH; assay type: ADME; details: 0.25 h

Chain of Cytochrome P450 2C9 (P11712 whole entry): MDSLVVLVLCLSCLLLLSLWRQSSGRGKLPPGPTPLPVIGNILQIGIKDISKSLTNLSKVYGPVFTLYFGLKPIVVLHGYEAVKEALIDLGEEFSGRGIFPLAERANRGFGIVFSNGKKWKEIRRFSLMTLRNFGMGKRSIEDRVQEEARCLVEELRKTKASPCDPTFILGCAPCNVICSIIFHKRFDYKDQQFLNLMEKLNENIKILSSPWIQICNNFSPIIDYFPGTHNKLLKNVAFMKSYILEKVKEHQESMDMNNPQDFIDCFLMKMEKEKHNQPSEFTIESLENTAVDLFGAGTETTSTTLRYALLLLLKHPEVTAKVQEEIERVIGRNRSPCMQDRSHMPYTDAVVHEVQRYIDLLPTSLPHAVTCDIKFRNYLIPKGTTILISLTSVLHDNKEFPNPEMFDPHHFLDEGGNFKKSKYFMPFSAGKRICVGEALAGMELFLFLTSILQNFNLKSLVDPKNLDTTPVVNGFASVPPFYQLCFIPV
T1 sequence (P08684 whole entry): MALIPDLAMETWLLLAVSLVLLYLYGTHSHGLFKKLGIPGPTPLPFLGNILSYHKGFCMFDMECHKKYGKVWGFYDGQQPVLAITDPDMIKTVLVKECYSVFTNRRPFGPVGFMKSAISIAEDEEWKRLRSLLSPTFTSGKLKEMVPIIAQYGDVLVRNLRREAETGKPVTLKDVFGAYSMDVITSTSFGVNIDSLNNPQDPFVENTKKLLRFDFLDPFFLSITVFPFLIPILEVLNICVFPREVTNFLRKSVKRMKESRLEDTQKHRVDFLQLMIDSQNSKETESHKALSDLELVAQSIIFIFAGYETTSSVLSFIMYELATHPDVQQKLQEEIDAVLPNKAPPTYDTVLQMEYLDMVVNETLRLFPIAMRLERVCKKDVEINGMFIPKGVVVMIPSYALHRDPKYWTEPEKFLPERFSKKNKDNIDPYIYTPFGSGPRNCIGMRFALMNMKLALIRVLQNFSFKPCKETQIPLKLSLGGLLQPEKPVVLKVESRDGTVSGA
Chain of Cytochrome P450 2E1 (P05181 whole entry): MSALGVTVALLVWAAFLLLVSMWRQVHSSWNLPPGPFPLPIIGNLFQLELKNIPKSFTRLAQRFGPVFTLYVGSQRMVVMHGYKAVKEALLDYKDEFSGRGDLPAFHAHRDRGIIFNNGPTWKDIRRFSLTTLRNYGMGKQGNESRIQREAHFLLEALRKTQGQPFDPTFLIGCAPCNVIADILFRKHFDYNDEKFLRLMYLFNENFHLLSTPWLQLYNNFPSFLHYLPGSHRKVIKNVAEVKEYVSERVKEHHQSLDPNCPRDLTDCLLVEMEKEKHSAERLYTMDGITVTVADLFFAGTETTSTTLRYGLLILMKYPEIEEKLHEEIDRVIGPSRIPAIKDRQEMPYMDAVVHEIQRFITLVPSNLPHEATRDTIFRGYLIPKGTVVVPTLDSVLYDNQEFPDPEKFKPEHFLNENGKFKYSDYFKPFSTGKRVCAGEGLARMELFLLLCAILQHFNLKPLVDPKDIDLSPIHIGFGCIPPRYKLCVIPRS
Chain of Cytochrome P450 2D6 (P10635 whole entry): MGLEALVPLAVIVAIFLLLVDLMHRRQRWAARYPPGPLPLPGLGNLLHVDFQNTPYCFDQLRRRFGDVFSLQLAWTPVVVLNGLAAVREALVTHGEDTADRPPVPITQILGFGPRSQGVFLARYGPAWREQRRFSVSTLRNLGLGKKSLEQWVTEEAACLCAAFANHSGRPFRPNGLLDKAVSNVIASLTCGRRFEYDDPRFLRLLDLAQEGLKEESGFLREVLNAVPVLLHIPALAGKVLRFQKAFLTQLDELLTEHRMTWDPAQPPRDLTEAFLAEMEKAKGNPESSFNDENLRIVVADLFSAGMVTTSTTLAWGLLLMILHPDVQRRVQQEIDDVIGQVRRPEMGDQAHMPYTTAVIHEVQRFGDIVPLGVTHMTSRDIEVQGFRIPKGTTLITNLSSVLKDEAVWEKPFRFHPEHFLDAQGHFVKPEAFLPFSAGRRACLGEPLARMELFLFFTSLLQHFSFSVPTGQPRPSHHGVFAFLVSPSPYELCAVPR
Chain of Cytochrome P450 2C19 (P33261 whole entry): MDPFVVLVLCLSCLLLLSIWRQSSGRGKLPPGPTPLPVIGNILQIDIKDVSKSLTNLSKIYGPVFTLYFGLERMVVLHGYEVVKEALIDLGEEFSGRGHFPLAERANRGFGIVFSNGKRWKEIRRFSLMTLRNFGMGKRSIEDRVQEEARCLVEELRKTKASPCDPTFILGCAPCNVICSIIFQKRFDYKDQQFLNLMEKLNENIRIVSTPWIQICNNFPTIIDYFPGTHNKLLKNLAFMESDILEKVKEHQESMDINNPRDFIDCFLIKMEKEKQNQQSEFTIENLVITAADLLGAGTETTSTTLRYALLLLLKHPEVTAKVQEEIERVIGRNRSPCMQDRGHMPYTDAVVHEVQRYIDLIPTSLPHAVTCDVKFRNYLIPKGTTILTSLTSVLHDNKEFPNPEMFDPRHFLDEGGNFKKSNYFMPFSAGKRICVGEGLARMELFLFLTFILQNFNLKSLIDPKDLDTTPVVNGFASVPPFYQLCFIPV

SMILES: CC(C)(C)NC(=O)c1ccc(Oc2cc(F)c(CC(=O)O[C@@H]3O[C@H](C(=O)O)[C@@H](O)[C@H](O)[C@H]3O)cc2Cl)c(NS(=O)(=O)c2ccc(C3CC3)cc2Cl)c1
- Ki (Cytochrome P450 2C9): > 30 µM
- Ki (Cytochrome P450 2C19): > 30 µM
- Ki (Cytochrome P450 2D6): > 30 µM
- Ki (Cytochrome P450 2E1): > 30 µM
- Ki (Cytochrome P450 3A4 [1]): > 30 µM
- Ki (Cytochrome P450 3A4 [2]): > 30 µM
- Ki (Cytochrome P450 2C8): 7.3 µM
- Ki (Cytochrome P450 1A2): > 30 µM
- Ki (Cytochrome P450 2B6): > 30 µM

SMILES: CC(C)(C)NC(=O)c1ccc(Oc2cc(F)c(CC(=O)O)cc2Cl)c(NS(=O)(=O)c2ccc(C3CC3)cc2Cl)c1 [VIDUPIPRANT]
- IC50 (Cytochrome P450 2C9): ≥ 30 µM
- Ki (Cytochrome P450 2C9): > 30 µM
- IC50 (Cytochrome P450 2C19): ≥ 30 µM
- Ki (Cytochrome P450 2C19): > 30 µM
- IC50 (Cytochrome P450 2D6): ≥ 30 µM
- Ki (Cytochrome P450 2D6): > 30 µM
- IC50 (Cytochrome P450 2E1): ≥ 30 µM
- Ki (Cytochrome P450 2E1): > 30 µM
- IC50 (Cytochrome P450 3A4 [1]): ≥ 30 µM
- Ki (Cytochrome P450 3A4 [1]): > 30 µM
- IC50 (Cytochrome P450 3A4 [2]): ≥ 30 µM
- Ki (Cytochrome P450 3A4 [2]): > 30 µM
- Ki (Cytochrome P450 2C8): 1.8 µM
- fold induction at 48 h, up to 30 µM (CYP1A2): 1.4
- Cmax [3]: 227 ng/mL
- Drug metabolism [4]: metabolite_not_detected
- IC50 (Cytochrome P450 1A2): ≥ 30 µM
- Ki (Cytochrome P450 1A2): > 30 µM
- IC50 (Cytochrome P450 2B6): ≥ 30 µM
- Ki (Cytochrome P450 2B6): > 30 µM
